Consider eight molecules from US9522920B2, “Bromodomain inhibitors and uses thereof” (Constellation Pharmaceuticals, Inc., priority 2010, dated 2016).

The target in one assay is T1, BRD4(BD1) (Homo sapiens, UniProt O60885).
T1 construct: His; made in house
As to the kind of experiment: BRD4 AlphaLisa binding assay (Alphascreen). Particulars: Table 6; BRD4(BD1) 30 nM, H4-tetraacetyl peptide 200 nM; read-out: BRD4 Alphascreen IC50. In a few lines: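 BRD4(BD1) (30 nM) incubated 20 min at room temperature with peptide (200 nM) and compound in 40 mM HEPES pH 7.0, 40 mM NaCl, 1 mM DTT, 0.01% BSA, 0.008% Brij-35, 1.2% DMSO.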
For orientation: Bead proximity is the source of the signal in Alpha formats.

For another assay, the system named is IL-6 secretion. The assay is described as follows: Cell-based IL-6 quantification assay (ELISA, Mesoscale) in LPS-stimulated THP-1 cells. Particulars: Table 7, THP-1 cells, LPS 4 μg/mL, 16 h, normalised to CellTiter-Glo, read-out: IL6. The gist of the method:
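THP-1 cells stimulated with LPS at 4 μg/mL final and exposed to compounds for 16 h. Supernatant IL-6 measured by Mesoscale ELISA and normalized to CellTiter-Glo cell content. Percent inhibition derived from that ratio.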
(In general: An ELISA detects its analyte on a solid surface through an enzyme-linked reagent.)

Assay [1] deals with MYC mRNA. As to the kind of experiment: cMyc RNA quantification assay (QuantiGene) in Raji cells. It is filed as cell-based. Particulars: Table 7, Raji (Burkitt's lymphoma) cells, 4 h. In a few lines: (§1)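 MV4:11 or Raji cells were treated with a range of compound concentrations for 4 h. MYC mRNA was measured by QuantiGene 2.0, and biological duplicates were averaged and normalized to DMSO vehicle to give percent MYC mRNA.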

Assay [2] deals with MYC mRNA. The assay is described as follows: cMyc RNA quantification assay (QuantiGene) in MV4:11 cells. Particulars: read-out: MYC-MV411. It is filed as cell-based. The gist of the method:
as §1

For assay [3], the system named is LPS-induced IL-6 production. As to the kind of experiment: In-vivo inhibition of LPS-induced IL-6 production. Set-up: species or system Balb/C mice. Particulars: for ED50: Mus musculus; for ED50 (mg/kg): Table 15, oral gavage 30 min prior to LPS, plasma IL-6 ELISA two hours after LPS challenge, 50% inhibition compared to vehicle. Here is the method:
Female Balb/C mice, 6 weeks old upon arrival at animal facility, and weighing 18-20 g/mouse were used for this assay. The mice are acclimated in animal facility for 5-7 days prior experiment initiation. Mice were randomly divided into experimental groups to include several doses of test article, and vehicle and dexamethasone controls. Mice were fasted from 12 hours prior to study initiation (dosing), but allowed free access to water. Mice were dosed following study group design by oral gavage 30 min prior to LPS stimulation. Dosing interval time was 1 min/mouse.
Two hours after LPS challenge animals were anesthetized by CO2 inhalation, and blood was sampled via cardiac puncture into EDTA coated tubes and placed on ice. Plasma was separated by centrifugation at 3000 g at 4° C. for 15 min. The separated plasma was divided into aliquots (50 ul/aliquot) and stored at −80° C. until plasma IL-6 ELISA and drug levels were analyzed.

In a further assay the test system is Myc RNA. As to the kind of experiment: Myc RNA quantification in xenograft model. It is filed as in vivo, NOD SCID mice. The conditions noted are these: for ED50: Mus musculus, Raji, po. Here is the method:
Female NOD SCID mice (Harlan) were inoculated s.c. with 3×10^6 Raji cells per mouse resuspended in 10% Matrigel. Tumors were grown until they reached a size of 200 mm^3 to 400 mm^3 as measured by caliper. Mice were treated orally (5 mL/kg) with different doses of compounds prepared as a 2 mg/mL suspension of Carboxy-methyl-cellulose. At the indicated time points after treatment, tumors were harvested. RNA was isolated by using TRIzol extraction and processed for QuantiGene® Assay.

Where [4] appears, read: Homo sapiens, MV4-11, 4 h, Table 7, MV4:11 (AML) cells.
Where [5] appears, read: Table 7, MV4:11 (AML) cells, 4 h.

Molecules are shown by their SMILES. Read-outs that look alike come from different tables or passages of the source.

As to `Cc1noc2c1-c1sc(C)c(C)c1C(c1ccc(Cl)cc1)=N[C@H]2CC(N)=O` [Compound 110, 2-((6S)-4-(4-chlorophenyl)-2,3,9-trimethyl-6H-isoxazolo[5,4-c]thieno[2,3-e]azepin-6-yl)acetamide], the IC50 at BRD4(BD1) was less than 500 nM; with IL-6 secretion (Homo sapiens, THP-1, 16 h), less than 500 nM; in the assay on MYC mRNA [1] (Homo sapiens) it was less than 500 nM; with MYC mRNA [2] (setting [4]), less than 500 nM. The figures for the ED50 (in assay [3]; in the assay with Myc RNA) were less than 10 mg/kg and 20 to 50 mg/kg, respectively.
For the molecule `Cc1noc2c1-c1sc(C)c(C)c1C(c1ccc(C#N)cc1)=NC2CC(=O)NCCF` (stereo not drawn) [Compound 114], the IC50 at BRD4(BD1) was less than 500 nM; in the assay on IL-6 secretion (Homo sapiens, THP-1, 16 h), less than 500 nM; in the assay with MYC mRNA [1] (Homo sapiens), less than 500 nM. In the assay with Myc RNA, this molecule returned an ED50 of 20 to 50 mg/kg.
As to `Cc1cccc2c1C(c1ccc(Cl)cc1)=NC(CC(N)=O)c1onc(C)c1-2` (stereo not drawn) [Compound 128], the IC50 on BRD4(BD1), in the assay on IL-6 secretion and in the assay with MYC mRNA [1] was less than 500 nM each time. In assay [3], the “ED50 (mg/kg)” value is given as “++ (“++” indicates an ED50 of less than 10 mg/kg)”.
As to `Cc1cccc2c1C(c1ccc(F)cc1)=NC(CC(N)=O)c1onc(C)c1-2` (stereo not drawn) [Compound 129], the IC50 was less than 500 nM at BRD4(BD1); less than 500 nM with IL-6 secretion (Homo sapiens, THP-1, 16 h); less than 500 nM with MYC mRNA [1] (Homo sapiens). The values for the ED50 (in assay [3]; with Myc RNA) were less than 10 mg/kg and 20 to 50 mg/kg, respectively.
With `Cc1cccc2c1C(c1ccc(C(F)(F)F)cc1)=NC(CC(N)=O)c1onc(C)c1-2` (stereo not drawn) [Compound 132], the IC50 at BRD4(BD1) was less than 500 nM; in the assay with IL-6 secretion (Homo sapiens, THP-1, 16 h) it was less than 500 nM; in the assay on MYC mRNA [1] (Homo sapiens), less than 500 nM; with MYC mRNA [2] (setting [4]), less than 500 nM. For the same molecule, the results for the ED50 (in assay [3]; in the assay on Myc RNA) were less than 10 mg/kg and less than 20 mg/kg, respectively.
As for `Cc1noc2c1-c1ccccc1C(c1ccc(Cl)cc1)=N[C@H]2CC(N)=O` [Compound 144], the IC50 in the assay on IL-6 secretion, with MYC mRNA [1] and in the assay on MYC mRNA [2] (setting [5]) was less than 500 nM each time. Further, the “ED50 (mg/kg)” value is “++ (“++” indicates an ED50 of less than 10 mg/kg)” in assay [3] and “++ (“++” indicates an ED50 of less than 20 mg/kg)” in the assay on Myc RNA (Table 16, Raji xenograft tumors, oral treatment, Myc RNA by QuantiGene, 50% inhibition compared to vehicle).
With `Cc1noc2c1-c1ccccc1C(c1ccc(C#N)cc1)=N[C@H]2CC(N)=O` [Compound 148], the IC50 on BRD4(BD1), with IL-6 secretion, with MYC mRNA [1] and in the assay on MYC mRNA [2] (setting [5]) was less than 500 nM in each case. Besides, in assay [3], the “ED50 (mg/kg)” value is “+ (“+” indicates and ED50 of between 10 and 50 mg/kg)”.
`CCNC(=O)C[C@@H]1N=C(c2ccc(Cl)cc2)c2c(sc(C)c2C)-c2c(C)noc21` [Compound 165, 2-((6S)-4-(4-chlorophenyl)-2,3,9-trimethyl-6H-isoxazolo[4,5-e]thieno[3,2-c]azepin-6-yl)-N-ethylacetamide]: the IC50 on BRD4(BD1) was less than 500 nM; in the assay on IL-6 secretion (Homo sapiens, THP-1, 16 h) it was less than 500 nM; with MYC mRNA [1] (Homo sapiens), less than 500 nM. In assay [3], this molecule came in with an ED50 of 10 to 50 mg/kg.

As a reminder, the ED50 is the dose at which the effect has come halfway, by size or by number of responders. A higher ED50 goes with weaker potency.
